Test: Adverse events, DLTs, MTD and RP2D in phase I study CC-90010-ST-001 (NCI CTCAE v4.03)
Assay type: in vivo
Protocol: The primary endpoints of the study were the safety and tolerability of trotabresib, as well as the MTD and/or RP2D of trotabresib. Safety was assessed using the National Cancer Institute Common Terminology Criteria for Adverse Events v4.03[53].
The decision to evaluate additional subjects within a dose cohort, a higher dose cohort, intermediate dose cohorts, smaller dose increments, alternate dosing schedules, or declare an MTD will also be determined by the SRC, based on their review of clinical and laboratory safety […]
7.2.4. Definition of a Subject Evaluable for DLT
After the first dose is administered in any cohort during dose escalation, subjects in each cohort […]
more than one subject per day will be enrolled in a given dose escalation cohort.
A subject evaluable for DLT is defined as one that: […]
without experiencing a DLT,
Subjects non-evaluable for DLT will be replaced. Additional subjects within any dose cohort may be enrolled at the discretion of the SRC. Intra-subject dose escalation will not be allowed during the DLT assessment period.
7.2.5. Definition of Maximum Tolerated Dose (MTD) […]
of MTD is described in Section 7.2.2.
A variable dose cohort (eg, less frequent dosing) may be evaluated to accurately determine the MTD at the discretion of the SRC.
7.2.6. Definition of Dose-Limiting Toxicity (DLT) […]
used as a guide for the grading of severity of adverse events. A DLT is defined as any of the following toxicities occurring within the DLT assessment unless the event can clearly be […]
Do se-limiting toxicities are described below:
• Hyperglycemia meeting any of the following criteria:
− Grade 3 or greater fasting hyperglycemia (> 250 mg/dL) lasting > 4 days despite optimal medical treatment
(1 picture or pasted object on this page, not shown here)
− Hyperglycemia associated with diabetic ketoacidosis or nonketotic hyperosmolar coma regardless of glucose level
− Hyperglycemia that necessitates dose reduction despite dose interruption and resolution to ≤ grade 1 hyperglycemia within two weeks as described in […]
• Any Grade 4 non-hematologic toxicity of any duration
• Any non-hematologic toxicity Grade ≥ 3 EXCEPT for:
− Grade 3 diarrhea, nausea, or vomiting of ≤ 3 days duration (with optimal medical […]
− Grade 3 rash of the acneiform, pustular or maculopapular type which resolves to […]
level with resumption of study drug at the same dose (with optimal medical […]
− Grade 3 fatigue which resolves to Grade ≤ 2 within 7 days of study drug […]
the same dose (with optimal medical management).
• Hematological toxicities as follows:
− Grade 4 neutropenia lasting > 7 days
− Grade 4 thrombocytopenia lasting > 7 days, Grade ≥ 3 thrombocytopenia with clinically significant bleeding
• Any AE, Grade ≥ 2 not specified or exempt above, unless clearly determined to be unrelated to the drug, necessitating dose-level reduction during Cycle 1.
Isolated laboratory changes without associated clinical signs or symptoms (eg, hypomagnesemia, hypermagnesemia, hypoalbuminemia, hypophosphatemia, lymphocyte count increased or decreased) may not be included in this definition. These findings will be discussed and reviewed […]
7.2.7. Criteria for Dose Escalation in the Next Cohort of Subjects
During Part A, the dose escalation criteria are described in Section 7.2.2.
7.2.8. Definition of Stopping Criteria
During Part A, the dose escalation stopping rules are in Section 7.2.2.
7.2.9. Permitted Study Drug Adjustments
Dose reductions are permitted in any cycle, including Cycle 1.
• Dose reductions that occur in Cycle 1 during dose escalation will constitute DLT as […]

[1] = part A (N = 69), 02 Dec 2019 cutoff
[2] = part A (n=69), as stated in protocol section 7.2.10.1
[3] = part A, 30 mg 3-days-on/11-days off, 02 Dec 2019 cutoff
[4] = part A, 45 mg 4-days-on/24-days-off, 02 Dec 2019 cutoff

Cn1cc(-c2cc(S(C)(=O)=O)ccc2OCC2CC2)c2ccccc2c1=O [trotabresib]
MTD (Schedule A, 3-days-on/11-days-off (180 mg per 28-day cycle)): 30 mg/dose
MTD (Schedule B, 4-days-on/24-days-off (180 mg per 28-day cycle)): 45 mg/dose
MTD (Schedule C, 2-days-on/5-days-off (120 mg per 28-day cycle)): 15 mg/dose
dose intensity below which well tolerated (human, in vivo): below 200 mg per 28-day cycle
further grade 3 and 4 TRAEs reported in one patient each (overall part A population): Grade 3 essential hypertension, hypokalemia, lipase increased, liver function test abnormal, presyncope, skin hemorrhage, and grade 4 blood creatinine phosphokinase increased, diabetes mellitus, and inappropriate antidiuretic hormone secretion
TRAE: ALT increased (part A 45 mg/day, any grade): 0%
TRAE: Anemia (part A 45 mg/day, any grade): 28.57%
TRAE: Any TRAE (part A 45 mg/day, any grade): 85.71%
TRAE: Asthenia (part A 45 mg/day, any grade): 14.29%
TRAE: Decreased appetite (part A 45 mg/day, any grade): 0%
TRAE: Dehydration (part A 45 mg/day, any grade): 0%
TRAE: Dermatitis acneiform (part A 45 mg/day, any grade): 0%
TRAE: Diarrhoea (part A 45 mg/day, any grade): 42.86%
TRAE: Dysgeusia (part A 45 mg/day, any grade): 14.29%
TRAE: Fatigue (part A 45 mg/day, any grade): 0%
TRAE: Hyperglycemia (part A 45 mg/day, any grade): 0%
TRAE: Hypertension (part A 45 mg/day, any grade): 0%
TRAE: Hyponatremia (part A 45 mg/day, any grade): 0%
TRAE: Hypophosphatemia (part A 45 mg/day, any grade): 0%
TRAE: Nausea (part A 45 mg/day, any grade): 28.57%
TRAE: Neutropenia (part A 45 mg/day, any grade): 0%
TRAE: Platelet count decreased (part A 45 mg/day, any grade): 0%
TRAE: Stomatitis (part A 45 mg/day, any grade): 42.86%
TRAE: Thrombocytopenia (part A 45 mg/day, any grade): 71.43%
TRAE: Vomiting (part A 45 mg/day, any grade): 14.29%
TRAE: ALT increased (part A 45 mg/day, grade 3): 0%
TRAE: Anemia (part A 45 mg/day, grade 3): 14.29%
TRAE: Any TRAE (part A 45 mg/day, grade 3): 14.29%
TRAE: Asthenia (part A 45 mg/day, grade 3): 0%
TRAE: Decreased appetite (part A 45 mg/day, grade 3): 0%
TRAE: Dehydration (part A 45 mg/day, grade 3): 0%
TRAE: Dermatitis acneiform (part A 45 mg/day, grade 3): 0%
TRAE: Diarrhoea (part A 45 mg/day, grade 3): 0%
TRAE: Dysgeusia (part A 45 mg/day, grade 3): 0%
TRAE: Fatigue (part A 45 mg/day, grade 3): 0%
TRAE: Hyperglycemia (part A 45 mg/day, grade 3): 0%
TRAE: Hypertension (part A 45 mg/day, grade 3): 0%
TRAE: Hyponatremia (part A 45 mg/day, grade 3): 0%
TRAE: Hypophosphatemia (part A 45 mg/day, grade 3): 0%
TRAE: Nausea (part A 45 mg/day, grade 3): 0%
TRAE: Neutropenia (part A 45 mg/day, grade 3): 0%
TRAE: Platelet count decreased (part A 45 mg/day, grade 3): 0%
TRAE: Stomatitis (part A 45 mg/day, grade 3): 0%
TRAE: Thrombocytopenia (part A 45 mg/day, grade 3): 0%
TRAE: Vomiting (part A 45 mg/day, grade 3): 0%
TRAE: ALT increased (part A 45 mg/day, grade 4): 0%
TRAE: Anemia (part A 45 mg/day, grade 4): 0%
TRAE: Any TRAE (part A 45 mg/day, grade 4): 14.29%
TRAE: Asthenia (part A 45 mg/day, grade 4): 0%
TRAE: Decreased appetite (part A 45 mg/day, grade 4): 0%
TRAE: Dehydration (part A 45 mg/day, grade 4): 0%
TRAE: Dermatitis acneiform (part A 45 mg/day, grade 4): 0%
TRAE: Diarrhoea (part A 45 mg/day, grade 4): 0%
TRAE: Dysgeusia (part A 45 mg/day, grade 4): 0%
TRAE: Fatigue (part A 45 mg/day, grade 4): 0%
TRAE: Hyperglycemia (part A 45 mg/day, grade 4): 0%
TRAE: Hypertension (part A 45 mg/day, grade 4): 0%
TRAE: Hyponatremia (part A 45 mg/day, grade 4): 0%
TRAE: Hypophosphatemia (part A 45 mg/day, grade 4): 0%
TRAE: Nausea (part A 45 mg/day, grade 4): 0%
TRAE: Neutropenia (part A 45 mg/day, grade 4): 0%
TRAE: Platelet count decreased (part A 45 mg/day, grade 4): 0%
TRAE: Stomatitis (part A 45 mg/day, grade 4): 0%
TRAE: Thrombocytopenia (part A 45 mg/day, grade 4): 14.29%
TRAE: Vomiting (part A 45 mg/day, grade 4): 0%
subjects with at least one DLT (part A (N = 69)): 6 subjects
Grade 3 or 4 TEAE anemia [1]: 4.3%
Grade 3 or 4 TEAE arthralgia [1]: 2.9%
Grade 3 or 4 TEAE asthenia [1]: 5.8%
Grade 3 or 4 TEAE back pain [1]: 2.9%
Grade 3 or 4 TEAE cognitive disorder [1]: 2.9%
Grade 3 or 4 TEAE decreased performance status [1]: 2.9%
Grade 3 or 4 TEAE decreased platelet count [1]: 2.9%
Grade 3 or 4 TEAE dyspnea [1]: 2.9%
Grade 3 or 4 TEAE fatigue [1]: 2.9%
Grade 3 or 4 TEAE hyperglycemia [1]: 5.8%
Grade 3 or 4 TEAE hypokalemia [1]: 2.9%
Grade 3 or 4 TEAE hyponatremia [1]: 2.9%
Grade 3 or 4 TEAE increased ALT [1]: 4.3%
Grade 3 or 4 TEAE thrombocytopenia [1]: 13.0%
TEAE abdominal pain [1]: 14.5%
TEAE anemia [1]: 15.9%
TEAE asthenia [1]: 39.1%
TEAE constipation [1]: 13.0%
TEAE decreased appetite [1]: 24.6%
TEAE dermatitis acneiform [1]: 13.0%
TEAE diarrhea [1]: 42.0%
TEAE dysgeusia [1]: 29.0%
TEAE fatigue [1]: 24.6%
TEAE headache [1]: 10.1%
TEAE hyperglycemia [1]: 21.7%
TEAE increased ALT [1]: 13.0%
TEAE maculopapular rash [1]: 10.1%
TEAE nausea [1]: 40.6%
TEAE stomatitis [1]: 24.6%
TEAE thrombocytopenia [1]: 50.7%
TEAE vomiting [1]: 24.6%
serious TEAE anemia [1]: 2.9%
serious TEAE arthralgia [1]: 2.9%
serious TEAE cognitive disorder [1]: 4.3%
serious TEAE decreased platelet count [1]: 1.4%
serious TEAE diarrhea [1]: 2.9%
serious TEAE fatigue [1]: 2.9%
serious TEAE general physical health deterioration [1]: 2.9%
serious TEAE headache [1]: 4.3%
serious TEAE noncardiac chest pain [1]: 2.9%
serious TEAE thrombocytopenia [1]: 2.9%
subjects with a TEAE leading to death (all not related) [1]: 10.1%
subjects with at least one Grade 3 or 4 TEAE [1]: 58.0%
subjects with at least one serious TEAE [1]: 46.4%
subjects with at least one treatment-related Grade 3 or 4 TEAE [1]: 33.3%
subjects with at least one treatment-related TEAE [1]: 87.0%
subjects with at least one treatment-related serious TEAE [1]: 11.6%
treatment-related Grade 3 or 4 TEAE anemia [1]: 4.3%
treatment-related Grade 3 or 4 TEAE decreased platelet count [1]: 2.9%
treatment-related Grade 3 or 4 TEAE fatigue [1]: 2.9%
treatment-related Grade 3 or 4 TEAE hyponatremia [1]: 2.9%
treatment-related Grade 3 or 4 TEAE increased ALT [1]: 2.9%
treatment-related Grade 3 or 4 TEAE thrombocytopenia [1]: 13.0%
treatment-related TEAE anemia [1]: 11.6%
treatment-related TEAE asthenia [1]: 31.9%
treatment-related TEAE decreased appetite [1]: 17.4%
treatment-related TEAE dermatitis acneiform [1]: 13.0%
treatment-related TEAE diarrhea [1]: 39.1%
treatment-related TEAE dysgeusia [1]: 26.1%
treatment-related TEAE fatigue [1]: 21.7%
treatment-related TEAE hyperglycemia [1]: 11.6%
treatment-related TEAE nausea [1]: 39.1%
treatment-related TEAE stomatitis [1]: 23.2%
treatment-related TEAE thrombocytopenia [1]: 46.4%
treatment-related TEAE vomiting [1]: 17.4%
treatment-related serious TEAE anemia [1]: 2.9%
treatment-related serious TEAE decreased platelet count [1]: 1.4%
treatment-related serious TEAE diarrhea [1]: 2.9%
treatment-related serious TEAE fatigue [1]: 2.9%
treatment-related serious TEAE thrombocytopenia [1]: 2.9%
Grade 3 or 4 TEAE decreased platelet count [2]: 4.3%
Grade 3 or 4 TEAE thrombocytopenia [2]: 10.1%
TEAE decreased platelet count [2]: 18.8%
subjects with at least one Grade 3 or 4 TEAE [2]: 49.3%
subjects with at least one TEAE Grade 3 or 4 related to study drug [3]: 33.3%
subjects with at least one TEAE related to study drug [3]: 66.7%
subjects with at least one TEAE Grade 3 or 4 related to study drug [4]: 28.6%
subjects with at least one TEAE related to study drug [4]: 85.7%
TRAE: ALT increased (part A, any grade): 7.25%
TRAE: Anemia (part A, any grade): 11.59%
TRAE: Any TRAE (part A, any grade): 86.96%
TRAE: Asthenia (part A, any grade): 31.88%
TRAE: Decreased appetite (part A, any grade): 17.39%
TRAE: Dehydration (part A, any grade): 0%
TRAE: Dermatitis acneiform (part A, any grade): 13.04%
TRAE: Diarrhoea (part A, any grade): 39.13%
TRAE: Dysgeusia (part A, any grade): 26.09%
TRAE: Fatigue (part A, any grade): 21.74%
TRAE: Hyperglycemia (part A, any grade): 11.59%
TRAE: Hypertension (part A, any grade): 1.45%
TRAE: Hyponatremia (part A, any grade): 4.35%
TRAE: Hypophosphatemia (part A, any grade): 2.9%
TRAE: Nausea (part A, any grade): 39.13%
TRAE: Neutropenia (part A, any grade): 7.25%
TRAE: Platelet count decreased (part A, any grade): 4.35%
TRAE: Stomatitis (part A, any grade): 23.19%
TRAE: Thrombocytopenia (part A, any grade): 46.38%
TRAE: Vomiting (part A, any grade): 17.39%
TRAE: ALT increased (part A, grade 3): 1.45%
TRAE: Anemia (part A, grade 3): 4.35%
TRAE: Any TRAE (part A, grade 3): 26.09%
TRAE: Asthenia (part A, grade 3): 1.45%
TRAE: Decreased appetite (part A, grade 3): 0%
TRAE: Dehydration (part A, grade 3): 0%
TRAE: Dermatitis acneiform (part A, grade 3): 0%
TRAE: Diarrhoea (part A, grade 3): 1.45%
TRAE: Dysgeusia (part A, grade 3): 0%
TRAE: Fatigue (part A, grade 3): 2.9%

From article PMC10011554, “BET inhibitor trotabresib in heavily pretreated patients with solid tumors and diffuse large B-cell lymphomas” (Nature Communications, 2023)
